Calls of active or inactive are those of the source.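 The calls were made as follows: active = parasite count per well reduced by over 3 SD from the mean, with host cell number above 80% of untreated; inactive = the rest.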
System: L. donovani amastigotes in THP-1 macrophages, DAPI imaging, 72 h
Test: antileishmanial activity in infected macrophages – imaging, THP-1 host macrophages, single concentration (AID 977614);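 also: signal is the parasite per host cell ratio from DAPI stained kinetoplasts and nuclei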

SMILES | AC50
O=C(Nc1cccc(F)c1)N1C[C@@H]2[C@H](c3ccccc31)[C@H](CO)N2C(=O)Cc1ccccn1 | > 10 µM (inactive)
CN(C)CC(=O)N1C[C@@H]2[C@H](c3ccccc31)[C@H](CO)N2C(=O)c1ccccn1 | > 10 µM (inactive)
CN1C[C@@H]2[C@H](c3ccccc31)[C@H](CO)N2C(=O)C1CCOCC1 | > 10 µM (inactive)
C[C@H](CO)N1C[C@H](C)[C@@H](CN(C)Cc2ccccc2)OCc2cn(nn2)CCCC1=O | > 10 µM (inactive)
COc1ccc(NC(=O)N(C)C[C@H]2OCc3cnnn3CCCC(=O)N([C@@H](C)CO)C[C@@H]2C)c(OC)c1 | > 10 µM (inactive)
CC(C)N(C[C@@H]1N[C@@H](CO)[C@@H]1c1ccccc1)S(=O)(=O)c1ccccc1 | > 10 µM (inactive)
C[C@H]1CN([C@@H](C)CO)C(=O)CCCn2cc(nn2)CO[C@@H]1CN(C)S(=O)(=O)c1cccc(C#N)c1 | > 10 µM (inactive)
O=C(Nc1ccc(F)cc1)N1[C@H](CO)[C@@H]2c3ccccc3NC[C@@H]21 | > 10 µM (inactive)
C[C@H](CO)N1C[C@H](C)[C@@H](CN(C)C(=O)NC2CCCCC2)OCc2cn(nn2)CCCC1=O | > 10 µM (inactive)
CCC(=O)NC[C@H]1[C@@H](c2ccc(-c3ccc(C#N)cc3)cc2)[C@@H](CO)N1CCC(F)(F)F | > 10 µM (inactive)
CC(=O)N(CC1CCC1)C[C@H]1N[C@H](CO)[C@@H]1c1ccc(C2=CCCC2)cc1 | > 10 µM (inactive)
C[C@@H]1CN([C@@H](C)CO)C(=O)CCCn2cc(nn2)CO[C@@H]1CN(C)S(=O)(=O)c1cn(C)cn1 | > 10 µM (inactive)
COc1ccc(C(=O)N2C[C@@H]3[C@H](c4ccccc42)[C@H](CO)N3Cc2ccccc2Cl)cc1 | > 10 µM (inactive)
C/C=C/c1ccc([C@@H]2[C@H](CO)N[C@H]2CN(C(=O)c2ccccc2F)C(C)C)cc1 | > 10 µM (inactive)
O=S(=O)(c1ccccc1)N1[C@H](CO)[C@H]2c3ccccc3NC[C@H]21 | > 10 µM (inactive)
CCCNC(=O)N1C[C@@H]2[C@H](c3ccccc31)[C@@H](CO)N2C(=O)Nc1ccccc1F | > 10 µM (inactive)
C[C@H](CO)N1C[C@H](C)[C@@H](CN(C)S(=O)(=O)c2ccc3c(c2)OCCCO3)OCc2cnnn2CCCC1=O | > 10 µM (inactive)
C[C@H](CO)N1C[C@H](C)[C@@H](CN(C)C(=O)Oc2cccc3ccccc23)OCc2cnnn2CCCC1=O | > 10 µM (inactive)
COc1ccc(NC(=O)N(C)C[C@H]2OCc3cnnn3CCCC(=O)N([C@H](C)CO)C[C@@H]2C)c(OC)c1 | > 10 µM (inactive)
Cc1noc(C)c1NC(=O)N(C)C[C@H]1OCc2cn(nn2)CCCC(=O)N([C@H](C)CO)C[C@H]1C | > 10 µM (inactive)
CN(C[C@H]1N[C@@H](CO)[C@H]1c1ccc(-c2ccc(F)cc2)cc1)C(=O)C1CCC1 | > 10 µM (inactive)
C[C@@H]1CN([C@H](C)CO)C(=O)CCCn2nncc2CO[C@@H]1CN(C)C(=O)Nc1ccc(-c2cccs2)cc1 | > 10 µM (inactive)
O=C(Cc1ccccc1)N1C[C@H]2[C@@H](c3ccccc31)[C@H](CO)N2S(=O)(=O)c1ccccc1 | > 10 µM (inactive)
CN(C[C@H]1N[C@@H](CO)[C@@H]1c1ccccc1)C(=O)c1ccccn1 | > 10 µM (inactive)
CN1C[C@H]2[C@@H](c3ccccc31)[C@@H](CO)N2Cc1ccccc1Cl | > 10 µM (inactive)
OC[C@@H]1[C@@H]2c3ccccc3NC[C@@H]2N1Cc1ccccc1Cl | > 10 µM (inactive)

SMILES | AC50
O=C(NC[C@@H]1[C@@H](c2ccccc2)[C@@H](CO)N1C(=O)Cc1ccncc1)C1CCC1 | > 10 µM (inactive)
O=C(CC(F)(F)F)N1C[C@@H]2[C@H](c3ccccc31)[C@H](CO)N2Cc1cccnc1 | > 10 µM (inactive)
C[C@@H]1CN([C@H](C)CO)C(=O)CCCn2cc(nn2)CO[C@@H]1CN(C)S(=O)(=O)c1cccc(C#N)c1 | > 10 µM (inactive)
CNC[C@@H]1OCc2cn(nn2)CCCC(=O)N([C@H](C)CO)C[C@@H]1C | > 10 µM (inactive)
C[C@H]1CN([C@@H](C)CO)C(=O)CCCn2cc(nn2)CO[C@@H]1CN(C)C(=O)Nc1ccc2c(c1)OCO2 | > 10 µM (inactive)
CC(C)NC(=O)N1[C@H](CO)[C@@H]2c3ccccc3NC[C@@H]21 | > 10 µM (inactive)
CCCNC(=O)N1[C@@H]2CN(C(=O)c3ccncc3)c3ccccc3[C@@H]2[C@@H]1CO | > 10 µM (inactive)
CN1C[C@H]2[C@@H](c3ccccc31)[C@@H](CO)N2S(=O)(=O)c1ccccc1 | > 10 µM (inactive)
C/C=C/c1ccc([C@@H]2[C@H](CO)N[C@H]2CN(CC(C)C)C(=O)c2ccccn2)cc1 | > 10 µM (inactive)
CC(C)NC(=O)N1[C@H](CNC(=O)CN(C)C)[C@@H](c2ccccc2)[C@@H]1CO | > 10 µM (inactive)
O=C(Nc1ccc(Cl)cc1)N1C[C@@H]2[C@H](c3ccccc31)[C@@H](CO)N2CC1CCCCC1 | > 10 µM (inactive)
CCC(=O)N1[C@H](CO)[C@H](c2ccccc2)[C@H]1CN(CC1CCC1)S(C)(=O)=O | > 10 µM (inactive)
CN1C[C@@H]2[C@H](c3ccccc31)[C@H](CO)N2Cc1ccccc1Cl | > 10 µM (inactive)
COCC(=O)N1[C@H](CNC(=O)c2ccccn2)[C@@H](c2ccccc2)[C@@H]1CO | > 10 µM (inactive)
C[C@H]1CN([C@@H](C)CO)C(=O)CCCn2nncc2CO[C@@H]1CN(C)Cc1cccc2c1OCCCO2 | > 10 µM (inactive)
C[C@@H]1CN([C@@H](C)CO)C(=O)CCCn2nncc2CO[C@H]1CN(C)C(=O)Nc1ccc2c(c1)OCCO2 | > 10 µM (inactive)
CCS(=O)(=O)N(C)C[C@@H]1N[C@H](CO)[C@@H]1c1ccc(C2=CCCCC2)cc1 | > 10 µM (inactive)
O=C(c1ccccc1F)N1C[C@H]2[C@@H](c3ccccc31)[C@@H](CO)N2C(=O)Nc1ccccc1 | > 10 µM (inactive)
COc1ccccc1C(=O)N1C[C@H]2[C@@H](c3ccccc31)[C@H](CO)N2C(=O)Cc1ccccc1 | > 10 µM (inactive)
C[C@H](CO)N1C[C@H](C)[C@H](CN(C)C(=O)Nc2ccc(-c3cccs3)cc2)OCc2cnnn2CCCC1=O | > 10 µM (inactive)
CCN(C[C@@H]1[C@@H](c2ccc(-c3cccnc3)cc2)[C@H](CO)N1C(C)=O)C(C)=O | > 10 µM (inactive)
CNC[C@H]1OCc2cnnn2CCCC(=O)N([C@@H](C)CO)C[C@@H]1C | > 10 µM (inactive)
CC(C)N(C[C@H]1N[C@H](CO)[C@H]1c1ccccc1)S(=O)(=O)c1ccccc1 | > 10 µM (inactive)
C[C@@H]1CN([C@@H](C)CO)C(=O)CCCn2nncc2CO[C@H]1CN(C)C(=O)c1cc(-c2ccccc2)on1 | > 10 µM (inactive)
CC(=O)N1[C@@H](CO)[C@H](c2ccccc2)[C@@H]1CNC(=O)CN1CCOCC1 | > 10 µM (inactive)
CC(=O)N1C[C@H]2[C@@H](c3ccccc31)[C@@H](CO)N2Cc1ccc(Cl)cc1 | > 10 µM (inactive)

SMILES | AC50
C[C@@H]1CN([C@H](C)CO)C(=O)CCCn2nncc2CO[C@@H]1CN(C)C(=O)Nc1ccc2c(c1)OCCO2 | > 10 µM (inactive)
C[C@H]1CN([C@@H](C)CO)C(=O)CCCn2nncc2CO[C@H]1CN(C)C(=O)CCC(F)(F)F | > 10 µM (inactive)
OC[C@H]1[C@H]2c3ccccc3NC[C@H]2N1Cc1cccnc1 | > 10 µM (inactive)
COc1ccccc1S(=O)(=O)N(C)C[C@H]1OCc2cn(nn2)CCCC(=O)N([C@@H](C)CO)C[C@H]1C | > 10 µM (inactive)
CCCC(=O)N1C[C@H]2[C@@H](c3ccccc31)[C@@H](CO)N2Cc1cocn1 | > 10 µM (inactive)
C[C@@H]1CN([C@H](C)CO)C(=O)CCCn2nncc2CO[C@H]1CN(C)S(=O)(=O)c1ccc(Oc2ccccc2)nc1 | > 10 µM (inactive)
O=C(C1CC1)N1C[C@@H]2[C@H](c3ccccc31)[C@@H](CO)N2C(=O)c1ccccc1 | > 10 µM (inactive)
Cc1cccc(S(=O)(=O)N2C[C@@H]3[C@H](c4ccccc42)[C@H](CO)N3Cc2ccc3c(c2)OCO3)c1 | > 10 µM (inactive)
C[C@H]1CN([C@@H](C)CO)C(=O)CCCn2nncc2CO[C@@H]1CN(C)S(=O)(=O)c1ccccc1C#N | > 10 µM (inactive)
C[C@@H]1CN([C@@H](C)CO)C(=O)CCCn2nncc2CO[C@@H]1CN(C)C(=O)Nc1ccc(-c2cccs2)cc1 | > 10 µM (inactive)
C[C@H]1CN([C@@H](C)CO)C(=O)CCCn2nncc2CO[C@H]1CN(C)S(=O)(=O)c1ccccc1C#N | > 10 µM (inactive)
O=C(CC(F)(F)F)N1C[C@H]2[C@@H](c3ccccc31)[C@H](CO)N2Cc1cccnc1 | > 10 µM (inactive)
O=C(Nc1ccccc1Cl)N1C[C@@H]2[C@H](c3ccccc31)[C@@H](CO)N2Cc1ccncc1 | > 10 µM (inactive)
C[C@@H]1CN([C@@H](C)CO)C(=O)CCCn2nncc2CO[C@H]1CN(C)Cc1cccc2c1OCCCO2 | > 10 µM (inactive)
C/C=C/c1ccc([C@@H]2[C@H](CO)N(C(C)=O)[C@H]2CN(C(C)=O)C2CCCC2)cc1 | > 10 µM (inactive)
CCC(=O)N1[C@@H](CO)[C@@H]2c3ccccc3N(C(=O)Nc3ccc(Cl)cc3)C[C@@H]21 | > 10 µM (inactive)
COc1ccccc1CN1[C@@H](CO)[C@@H]2c3ccccc3N(C(=O)c3cccnc3)C[C@@H]21 | > 10 µM (inactive)
Cc1noc(C)c1NC(=O)N(C)C[C@@H]1OCc2cn(nn2)CCCC(=O)N([C@@H](C)CO)C[C@@H]1C | > 10 µM (inactive)
C[C@@H]1CN([C@H](C)CO)C(=O)CCCn2nncc2CO[C@H]1CN(C)Cc1cccc2c1OCCCO2 | > 10 µM (inactive)
O=C(C1CC1)N1C[C@H]2[C@@H](c3ccccc31)[C@H](CO)N2C(=O)c1ccccc1 | > 10 µM (inactive)
C[C@H](CO)N1C[C@H](C)[C@H](CN(C)Cc2ccccc2C(=O)O)OCc2cnnn2CCCC1=O | > 10 µM (inactive)
CN1[C@@H]2CN(C(=O)Nc3cc(F)ccc3F)c3ccccc3[C@@H]2[C@@H]1CO | > 10 µM (inactive)
O=C(Nc1ccc(F)cc1)N1C[C@@H]2[C@H](c3ccccc31)[C@@H](CO)N2Cc1ccccc1Cl | > 10 µM (inactive)
Cc1noc(C)c1NC(=O)N(C)C[C@H]1OCc2cnnn2CCCC(=O)N([C@@H](C)CO)C[C@@H]1C | > 10 µM (inactive)
